Results published in US8192962B2, “Processes for detecting toxic substances” (Daikin Industries, Ltd., priority 2001, dated 2012).

Tested on: Transport facilitation protein genes
Assay: DNA chip mRNA expression in yeast, transport facilitation protein genes (Table 5)
Type: cell-based, Saccharomyces cerevisiae S288C
How it was run: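 S. cerevisiae S288C grown at 25° C. in YPD to log phase, then exposed 2 h to a toxicant at a growth-inhibiting, non-lethal concentration; untreated cells as control. Poly(A) mRNA reverse-transcribed with Cy3-dUTP or Cy5-dUTP, hybridized >12 h at 65° C. to whole-genome yeast DNA chip; value = fluorescence ratio treated/untreated.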

COc1cc(CNC(=O)CCCCC=CC(C)C)ccc1O [(12), 8-methyl-N-vanillyl-6-nonenamide]
The level of expressed mRNA in the presence of chemical substance/The level of expressed mRNA in the absence of chemical substance (yeast gene YBL030C): 0.9 | The level of expressed mRNA in the presence of chemical substance/The level of expressed mRNA in the absence of chemical substance (yeast gene YBL099W): 1.0 | The level of expressed mRNA in the presence of chemical substance/The level of expressed mRNA in the absence of chemical substance (yeast gene YBR052C): 1.3 | The level of expressed mRNA in the presence of chemical substance/The level of expressed mRNA in the absence of chemical substance (yeast gene YBR068C): 0.8 | The level of expressed mRNA in the presence of chemical substance/The level of expressed mRNA in the absence of chemical substance (yeast gene YBR127C): 0.9 | The level of expressed mRNA in the presence of chemical substance/The level of expressed mRNA in the absence of chemical substance (yeast gene YBR132C): 1.0 | The level of expressed mRNA in the presence of chemical substance/The level of expressed mRNA in the absence of chemical substance (yeast gene YBR207W): 0.9 | The level of expressed mRNA in the presence of chemical substance/The level of expressed mRNA in the absence of chemical substance (yeast gene YBR293W): 1.0 | The level of expressed mRNA in the presence of chemical substance/The level of expressed mRNA in the absence of chemical substance (yeast gene YBR294W): 1.0 | The level of expressed mRNA in the presence of chemical substance/The level of expressed mRNA in the absence of chemical substance (yeast gene YBR295W): 0.9 | The level of expressed mRNA in the presence of chemical substance/The level of expressed mRNA in the absence of chemical substance (yeast gene YBR298C): 1.1 | The level of expressed mRNA in the presence of chemical substance/The level of expressed mRNA in the absence of chemical substance (yeast gene YCL025C): 1.1 | The level of expressed mRNA in the presence of chemical substance/The level of expressed mRNA in the absence of chemical substance (yeast gene YCL038C): 1.3 | The level of expressed mRNA in the presence of chemical substance/The level of expressed mRNA in the absence of chemical substance (yeast gene YCR024C-A): 1.0 | The level of expressed mRNA in the presence of chemical substance/The level of expressed mRNA in the absence of chemical substance (yeast gene YCR037C): 0.7 | The level of expressed mRNA in the presence of chemical substance/The level of expressed mRNA in the absence of chemical substance (yeast gene YCR098C): 1.3 | The level of expressed mRNA in the presence of chemical substance/The level of expressed mRNA in the absence of chemical substance (yeast gene YDL128W): 0.9 | The level of expressed mRNA in the presence of chemical substance/The level of expressed mRNA in the absence of chemical substance (yeast gene YDL198C): 1.2 | The level of expressed mRNA in the presence of chemical substance/The level of expressed mRNA in the absence of chemical substance (yeast gene YDL210W): 0.8 | The level of expressed mRNA in the presence of chemical substance/The level of expressed mRNA in the absence of chemical substance (yeast gene YDL245C): 1.0 | The level of expressed mRNA in the presence of chemical substance/The level of expressed mRNA in the absence of chemical substance (yeast gene YDR038C): 0.7 | The level of expressed mRNA in the presence of chemical substance/The level of expressed mRNA in the absence of chemical substance (yeast gene YDR039C): 0.8 | The level of expressed mRNA in the presence of chemical substance/The level of expressed mRNA in the absence of chemical substance (yeast gene YDR086C): 0.7 | The level of expressed mRNA in the presence of chemical substance/The level of expressed mRNA in the absence of chemical substance (yeast gene YDR270W): 1.0 | The level of expressed mRNA in the presence of chemical substance/The level of expressed mRNA in the absence of chemical substance (yeast gene YDR298C): 1.1 | The level of expressed mRNA in the presence of chemical substance/The level of expressed mRNA in the absence of chemical substance (yeast gene YDR342C): 1.0 | The level of expressed mRNA in the presence of chemical substance/The level of expressed mRNA in the absence of chemical substance (yeast gene YDR343C): 1.0 | The level of expressed mRNA in the presence of chemical substance/The level of expressed mRNA in the absence of chemical substance (yeast gene YDR345C): 1.4 | The level of expressed mRNA in the presence of chemical substance/The level of expressed mRNA in the absence of chemical substance (yeast gene YDR387C): 0.9 | The level of expressed mRNA in the presence of chemical substance/The level of expressed mRNA in the absence of chemical substance (yeast gene YDR497C): 0.9 | The level of expressed mRNA in the presence of chemical substance/The level of expressed mRNA in the absence of chemical substance (yeast gene YEL027W): 0.9 | The level of expressed mRNA in the presence of chemical substance/The level of expressed mRNA in the absence of chemical substance (yeast gene YEL063C): 1.1 | The level of expressed mRNA in the presence of chemical substance/The level of expressed mRNA in the absence of chemical substance (yeast gene YEL065W): 1.7 | The level of expressed mRNA in the presence of chemical substance/The level of expressed mRNA in the absence of chemical substance (yeast gene YER053C): 1.7 | The level of expressed mRNA in the presence of chemical substance/The level of expressed mRNA in the absence of chemical substance (yeast gene YER119C): 0.7 | The level of expressed mRNA in the presence of chemical substance/The level of expressed mRNA in the absence of chemical substance (yeast gene YFL011W): 0.9 | The level of expressed mRNA in the presence of chemical substance/The level of expressed mRNA in the absence of chemical substance (yeast gene YFL041W): 1.1 | The level of expressed mRNA in the presence of chemical substance/The level of expressed mRNA in the absence of chemical substance (yeast gene YFL050C): 0.9 | The level of expressed mRNA in the presence of chemical substance/The level of expressed mRNA in the absence of chemical substance (yeast gene YFL054C): 1.2 | The level of expressed mRNA in the presence of chemical substance/The level of expressed mRNA in the absence of chemical substance (yeast gene YFL055W): 0.9 | The level of expressed mRNA in the presence of chemical substance/The level of expressed mRNA in the absence of chemical substance (yeast gene YGL006W): 0.9 | The level of expressed mRNA in the presence of chemical substance/The level of expressed mRNA in the absence of chemical substance (yeast gene YGL008C): 2.4 | The level of expressed mRNA in the presence of chemical substance/The level of expressed mRNA in the absence of chemical substance (yeast gene YGL104C): 1.1 | The level of expressed mRNA in the presence of chemical substance/The level of expressed mRNA in the absence of chemical substance (yeast gene YGL167C): 1.1 | The level of expressed mRNA in the presence of chemical substance/The level of expressed mRNA in the absence of chemical substance (yeast gene YGL255W): 0.7 | The level of expressed mRNA in the presence of chemical substance/The level of expressed mRNA in the absence of chemical substance (yeast gene YGR055W): 0.9 | The level of expressed mRNA in the presence of chemical substance/The level of expressed mRNA in the absence of chemical substance (yeast gene YGR065C): 0.5 | The level of expressed mRNA in the presence of chemical substance/The level of expressed mRNA in the absence of chemical substance (yeast gene YGR082W): 0.8 | The level of expressed mRNA in the presence of chemical substance/The level of expressed mRNA in the absence of chemical substance (yeast gene YGR096W): 0.8 | The level of expressed mRNA in the presence of chemical substance/The level of expressed mRNA in the absence of chemical substance (yeast gene YGR138C): 0.6 | The level of expressed mRNA in the presence of chemical substance/The level of expressed mRNA in the absence of chemical substance (yeast gene YGR191W): 0.7 | The level of expressed mRNA in the presence of chemical substance/The level of expressed mRNA in the absence of chemical substance (yeast gene YGR197C): 1.2 | The level of expressed mRNA in the presence of chemical substance/The level of expressed mRNA in the absence of chemical substance (yeast gene YGR224W): 0.6 | The level of expressed mRNA in the presence of chemical substance/The level of expressed mRNA in the absence of chemical substance (yeast gene YGR260W): 0.6
